Test results reported in patent publication US5601806A, “Methods for scavenging active oxygen compounds and preventing damage from ultra violet B rays using taurine analogues” (Sogo Pharmaceutical Company Limited, priority 1991, dated 1997).

How the values were obtained:
XOD = experiment: Inhibition of XOD reaction by SOD (system (3) of SOD activating method); format: biochemical; conditions: SOD 0.1 ml
Description: Next, a measurement was made of the SOD activating function.
(3) System for inhibiting XOD reaction with SOD. XOD reaction was 20%

[1] = applied externally to the skin; cited from earlier work
[2] = alloxan; cited from earlier work
tyrosinase [3] = experiment: Tyrosine oxidation preventing effect (tyrosine oxide polymer production); format: biochemical; conditions: Ultraviolet rays
Protocol: In a quartz cell was put 1 ml of L-tyrosine (30 mg/100 ml), 1 ml of a tris buffer solution and 0.9 ml of a test solution (6.25×1/10^2 mol/l-1 mol/l), and the mixture was allowed to stand under radiation from an ultraviolet lamp at 37° C. for 10 minutes. Following this, 0.1 ml of tyrosinase (2000 units/ml) were added thereto, and further irradiated under an ultraviolet lamp at 37° C. for 30 minutes, after which the production of tyrosine oxide polymers was measured at 475 nm.

tyrosinase [4] = experiment: as above; format: biochemical; conditions: Indoors

## superoxide dismutase [SOD]
XOD
  XOD reaction inhibited by SOD: 20%
[1]
  amount of lipid peroxides in the epidermis due to UV rays: lowering the amount of lipid peroxides (LPO) in the epidermis due to UV rays
[2]
  symptoms of diabetes: suppressed

## catalase
[2]
  symptoms of diabetes: suppressed

## N=C(N)NCCS(=O)(O)=S [thiotaurocyamine]
Tyrosinase [3]; 1 mol/l
  Inhibition rate (tyrosine oxidation): 96.6%
Tyrosinase [3]; 1.25 × 10^-1 mol/l
  Inhibition rate (tyrosine oxidation): 88.2%
Tyrosinase [3]; 2.5 × 10^-1 mol/l
  Inhibition rate (tyrosine oxidation): 92.8%
Tyrosinase [3]; 5 × 10^-1 mol/l
  Inhibition rate (tyrosine oxidation): 92.4%
Tyrosinase [3]; 6.25 × 10^-2 mol/l
  Inhibition rate (tyrosine oxidation): 78.0%
Tyrosinase [4]; 1 mol/l
  Inhibition rate (tyrosine oxidation): 91.5%
Tyrosinase [4]; 1.25 × 10^-1 mol/l
  Inhibition rate (tyrosine oxidation): 36.8%
Tyrosinase [4]; 2.5 × 10^-1 mol/l
  Inhibition rate (tyrosine oxidation): 61.7%
Tyrosinase [4]; 5 × 10^-1 mol/l
  Inhibition rate (tyrosine oxidation): 87.7%
Tyrosinase [4]; 6.25 × 10^-2 mol/l
  Inhibition rate (tyrosine oxidation): 12.8%
